Laboratory results: BindingDB's records for doi:10.1016/j.bmcl.2017.10.053 (Vanderbilt University School of Medicine, 2017)

Molecular target: T1, Muscarinic acetylcholine receptor M4 (Homo sapiens, UniProt P08173)
T1 sequence (P08173 whole entry): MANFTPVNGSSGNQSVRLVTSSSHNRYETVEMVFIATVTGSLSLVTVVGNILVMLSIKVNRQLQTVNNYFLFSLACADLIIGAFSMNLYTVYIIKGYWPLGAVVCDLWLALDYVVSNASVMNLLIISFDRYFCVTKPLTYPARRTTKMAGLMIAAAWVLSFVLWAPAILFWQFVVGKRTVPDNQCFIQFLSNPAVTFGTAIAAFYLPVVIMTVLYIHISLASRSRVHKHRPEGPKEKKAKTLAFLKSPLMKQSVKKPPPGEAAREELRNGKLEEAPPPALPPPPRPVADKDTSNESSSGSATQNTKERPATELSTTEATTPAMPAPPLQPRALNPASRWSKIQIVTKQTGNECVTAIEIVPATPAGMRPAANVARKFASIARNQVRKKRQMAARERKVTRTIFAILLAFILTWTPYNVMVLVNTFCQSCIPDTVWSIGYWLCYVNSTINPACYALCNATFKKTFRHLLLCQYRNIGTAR
Assay: Positive allosteric modulation of human M4 receptor expressed in CHO cells co-expressing Gqi5 assessed as increase in acetylcholine-induced calcium mobilization

EC50: 324 nM
SMILES: Cc1nnc2sc(C(=O)N3CC4(CCN(c5cccnc5)C4)C3)c(N)c2c1C
